Assay: mn = molality of the nth substance listed, in mol/kg
Conditions: 101 kPa, Liquid, Alternating current cell with electrodes

O=S(=O)([O-])[O-].O=S(=O)([O-])[O-].O=S(=O)([O-])[O-].[Fe+3].[Fe+3] [ferric sulfate] + O
electrical conductivity [S/m]
Conditions	343.15 K	363.15 K
m1 = 0.000104	0.659	0.6888
m1 = 0.000829	0.681	0.718

[Cl][Fe][Cl] [ferrous chloride] + O
electrical conductivity [S/m]
Conditions	278.1 K	283.1 K	298.15 K	308.15 K	318.15 K	343.15 K	363.15 K
m1 = 9e-05	0.3365	0.3724	0.4835	0.5486	0.6142	0.7702	0.8954
m1 = 0.000726	0.3437	0.3802	0.494	0.5646	0.635	0.8025	0.9282
m1 = 0.00908	0.4397	0.4997	0.6568	0.7661	0.8715	1.148	1.354
m1 = 0.1169	1.6	1.807	2.494	3.003	3.516	4.889	5.966

Cl [hydrogen chloride] + O
electrical conductivity [S/m]
Conditions	278.15 K	283.15 K	298.15 K	308.15 K	318.15 K	343.15 K	363.15 K
m1 = 0.00011	0.003313	0.003683	0.004665	0.00531	0.005973	0.007487	0.008461
m1 = 0.000958	0.028	0.03088	0.03978	0.04565	0.05121	0.06414	0.07325
m1 = 0.00937	0.2714	0.3001	0.3869	0.4408	0.4932	0.6227	0.7132
m1 = 0.09398	2.604	2.872	3.684	4.19	4.673	5.872	6.722
m1 = 0.4603	11.98	13.14	16.69	18.97	21.09	26.23	29.87
m1 = 0.85	20.2	22.06	27.9	31.53	34.95	43.45	48.24

O=S(=O)([O-])O.[K+] [hydrogen potassium sulfate] + O
electrical conductivity [S/m]
Conditions	278.15 K	283.15 K	298.15 K	308.15 K	318.15 K	343.15 K	363.15 K
m1 = 0.000161	0.006027	0.006684	0.008772	0.01017	0.01154	0.01478	0.01675
m1 = 0.000981	0.03588	0.03981	0.05156	0.05895	0.06564	0.07958	0.0854
m1 = 0.01608	0.4635	0.5067	0.623	0.6784	0.7238	0.7958	0.8195
m1 = 0.09815	2.141	2.318	2.791	2.998	3.157	3.469	3.665
m1 = 0.2291	4.379	4.728	5.71	6.137	6.456	7.159	7.699

O=S(=O)([O-])[O-].[Fe+2] [iron(II) sulfate] + O
electrical conductivity [S/m]
Conditions	278.1 K	283.1 K	298.15 K	308.15 K	318.15 K	343.15 K	363.15 K
m1 = 0.00112	0.06212	0.06791	0.08697	0.09771	0.1075	0.1235	0.1274
m1 = 0.00212	0.06435	0.07287	0.09366	0.1063	0.1165	0.1409	0.1543
m1 = 0.01287	0.1183	0.1326	0.1784	0.2092	0.2419	0.3214	0.3988
m1 = 0.1121	0.2469	0.269	0.3516	0.3913	0.4714	–	–
m1 = 0.2576	1.238	1.415	1.98	2.303	2.692	3.631	4.11

[Cl-].[Li+] [lithium chloride] + O
electrical conductivity [S/m]
Conditions	278.15 K	283.15 K	298.15 K	308.15 K	318.15 K	343.15 K	363.15 K
m1 = 8.5e-05	0.0005986	0.0006826	0.0009588	0.00117	0.001388	0.001978	0.002483
m1 = 0.000952	0.006496	0.007487	0.01069	0.01311	0.01528	0.02191	0.02774
m1 = 0.00845	0.05562	0.06414	0.09167	0.1123	0.1315	0.1886	0.2366
m1 = 0.09523	0.5516	0.6326	0.9019	1.099	1.276	1.809	2.257
m1 = 0.9613	4.317	4.986	7.13	8.35	9.794	12.64	15.57

[Cl-].[Cl-].[Mg+2] [magnesium chloride] + O
electrical conductivity [S/m]
Conditions	278.15 K	283.15 K	298.15 K	308.15 K	318.15 K	343.15 K	363.15 K
m1 = 0.000119	0.001861	0.002134	0.002989	0.003553	0.004209	0.006086	0.00764
m1 = 0.000984	0.01481	0.017	0.02432	0.02937	0.03478	0.0501	0.06265
m1 = 0.01137	0.1537	0.176	0.2503	0.302	0.3534	0.5068	0.6347
m1 = 0.09942	1.1	1.256	1.772	2.137	2.515	3.575	4.424
m1 = 0.3609	3.449	3.927	5.491	6.606	7.753	10.94	13.6

O=[N+]([O-])[O-].O=[N+]([O-])[O-].[Mg+2] [magnesium nitrate] + O
electrical conductivity [S/m]
Conditions	278.1 K	283.1 K	298.15 K	308.15 K	318.15 K	343.15 K	363.15 K
m1 = 9.8e-05	0.007334	0.008166	0.01072	0.01244	0.01407	0.01831	0.02164
m1 = 0.000976	0.01971	0.02238	0.03083	0.03667	0.04272	0.0591	0.07277
m1 = 0.00937	0.1291	0.1472	0.2073	0.2488	0.2927	0.4146	0.5165
m1 = 0.09844	1.079	1.228	1.724	2.078	2.442	3.471	4.261
m1 = 0.3271	3.129	3.538	4.926	5.922	6.968	9.861	11.62

O=[N+]([O-])[O-].O=[N+]([O-])[O-].[Mn+2] [manganese nitrate] + O
electrical conductivity [S/m]
Conditions	278.1 K	283.1 K	298.15 K	308.15 K	318.15 K	343.15 K	363.15 K
m1 = 0.000917	0.05151	0.05774	0.07688	0.08959	0.1015	0.1307	0.155
m1 = 0.01047	0.1786	0.2033	0.282	0.3382	0.3934	0.538	0.6651
m1 = 0.086	1.04	1.179	1.63	1.958	2.295	3.125	3.692
m1 = 0.8521	7.064	7.973	10.69	12.54	14.41	19.41	–

From the NIST ThermoML archive (doi:10.1021/je101012n)
